Experiment [1] deals with T1, Avi-KRAS G12C (1-169) GppNHp/RAF1 RBD-3×FLAG (52-151) (Homo sapiens, UniProt P01116, G12C).
T1 construct: Avi-KRAS G12C (1-169) GppNHp; Avi (N)
Nature of the experiment: Raf1 RBD-KRAS G12C-GppNHp disruption assay (protein:protein interaction HTRF). It counts as biochemical. The gist of the method:
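HTRF measuring RAF1 RBD binding to GppNHp-loaded KRAS G12C (50 nM) in Tris pH 7.5, 100 mM NaCl, 5 mM MgCl2, 10% DMSO. Compound, KRAS, RBD and detection reagents each added sequentially with 1 h room-temperature incubations; 10-point titration; excitation 320 nm, emission 615 nm; activity as % of DMSO; IC50 derived.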
(Time-resolved FRET reads energy transfer from a long-lived donor to a nearby acceptor.)

In another experiment the test system is pERK in NCI-H358 cells. Nature of the experiment: Cell-based pERK HTRF assay (pERK inhibition in H358 cells). To be noted: 30 min incubation. Put shortly: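 NCI-H358 cells were seeded at 4×10^4 cells/well in RPMI/10% FBS, then treated next day for 30 min at 0.25% DMSO (9-point, 3-fold series from 75 μM). Lysates were read by HTRF (d2/Eu cryptate antibody pair, 615 nm emission) after 4–24 h at room temperature to give pERK IC50.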

pIC50: −log10 of the molar value.

T1 sequence (P01116 1-169 isoform P01116-2 G12C limits assumed): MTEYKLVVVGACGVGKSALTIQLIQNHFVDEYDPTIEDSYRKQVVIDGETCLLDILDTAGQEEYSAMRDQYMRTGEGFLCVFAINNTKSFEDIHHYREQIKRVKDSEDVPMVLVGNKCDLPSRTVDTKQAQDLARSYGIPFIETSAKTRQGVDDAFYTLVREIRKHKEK

`C=CC(=O)N1CC[C@@H](N(C)c2nc(OC[C@@]34CCCN3C[C@H](F)C4)nc3c(F)c(-c4ccc(F)c5sc(N)c(C#N)c45)c(Cl)cc23)[C@@H]1C` (atropisomer, axis not shown) [Compound 68]: the negative logarithm of the IC50 (pIC50) in experiment [1] is greater than 6.30; in the experiment on pERK in NCI-H358 cells (Homo sapiens, NCI-H358, 0.5 h), greater than 7.00.

Turning to `C=CC(=O)N1CC[C@@H](N(C)c2nc(OC[C@@]34CCCN3C[C@H](F)C4)nc3c(F)c(-c4ccc(F)c5sc(N)c(C#N)c45)c(Cl)cc23)[C@@H]1C` (atropisomer, axis not shown) [Compound 69], the values for the negative-log IC50 (pIC50) (in experiment [1]; in the experiment with pERK in NCI-H358 cells) were 5.30 to 6.30 and 6.00 to 7.00, respectively.

Regarding `C=CC(=O)N1CCC(N(C)c2nc(OC[C@@H]3CCCN3C3CC3)nc3c(F)c(-c4ccc(F)c5sc(N)c(C#N)c45)c(C(F)(F)F)cc23)[C@H]1C` (stereo partly shown) [Compound 1], the pIC50 was greater than 6.30 in experiment [1] and 6.00 to 7.00 with pERK in NCI-H358 cells (Homo sapiens, NCI-H358, 0.5 h).

Regarding `C=CC(=O)N1CCC(N(C)c2nc(OC[C@@]34CCCN3C[C@H](F)C4)nc3c(F)c(-c4ccc(F)c5sc(N)c(C#N)c45)c(Cl)cc23)[C@H]1CC` (stereo partly shown) [Compound 2], the negative logarithm of the IC50 (pIC50) in experiment [1] was 5.30 to 6.30; in the experiment on pERK in NCI-H358 cells (Homo sapiens, NCI-H358, 0.5 h) it was greater than 7.00.

Take `C=CC(=O)N1CCC(N(C)c2nc(OC[C@@]34CCCN3C[C@H](F)C4)nc3c(F)c(-c4ccc(F)c5sc(N)c(C#N)c45)c(C(F)(F)F)cc23)[C@H]1CC` (stereo partly shown) [Compound 3]: the negative logarithm of the IC50 (pIC50) was greater than 6.30 in experiment [1] and greater than 7.00 with pERK in NCI-H358 cells (Homo sapiens, NCI-H358, 0.5 h).

With `C=CC(=O)N1C[C@H]2C[C@@H]1CN2c1nc(OC[C@@]23CCCN2C[C@H](F)C3)nc2c(F)c(-c3ccc(F)c4sc(N)c(C#N)c34)c(C(F)(F)F)cc12` [Compound 37], the pIC50 in experiment [1] is 5.30 to 6.30; in the experiment on pERK in NCI-H358 cells (Homo sapiens, NCI-H358, 0.5 h) it was 6.00 to 7.00.

Turning to `C=CC(=O)N1CC[C@@H](N(CC)c2nc(OC[C@@]34CCCN3C[C@H](F)C4)nc3c(F)c(-c4ccc(F)c5sc(N)c(C#N)c45)c(C(F)(F)F)cc23)[C@H]1CC` [Compound 39], the pIC50 is greater than 6.30 in experiment [1] and greater than 7.00 in the experiment with pERK in NCI-H358 cells (Homo sapiens, NCI-H358, 0.5 h).

Consider `C=CC(=O)N1CC[C@@H](N(CC)c2nc(OC[C@@]34CCCN3C[C@H](F)C4)nc3cc(-c4ccc(F)c5sc(N)c(C#N)c45)c(C#N)cc23)[C@@H]1CC` [Compound 40], for which the pIC50 in experiment [1] is 5.30 to 6.30; in the experiment on pERK in NCI-H358 cells (Homo sapiens, NCI-H358, 0.5 h), 6.00 to 7.00.

With `C=CC(=O)N1CC[C@@H](N(CC)c2nc(OC[C@@]34CCCN3C[C@H](F)C4)nc3cc(-c4ccc(F)c5sc(N)c(C#N)c45)c(F)cc23)[C@@H]1CC` [Compound 41], the pIC50 was 5.30 to 6.30 in experiment [1] and 6.00 to 7.00 in the experiment on pERK in NCI-H358 cells (Homo sapiens, NCI-H358, 0.5 h).

For the compound `C=CC(=O)N1CC[C@@H](N(C)c2nc(OC[C@@]34CCCN3C[C@H](F)C4)nc3cc(-c4ccc(F)c5sc(N)c(C#N)c45)c(C#N)cc23)[C@H]1CC` [Compound 42], the negative logarithm of the IC50 (pIC50) in experiment [1] was greater than 6.30; in the experiment with pERK in NCI-H358 cells (Homo sapiens, NCI-H358, 0.5 h), greater than 7.00.

Take `C=CC(=O)N1CC[C@@H](N(CC)c2nc(OC[C@@H]3C[C@@H](OC)CN3C)nc3c(F)c(-c4ccc(F)c5sc(N)c(C#N)c45)c(C(F)(F)F)cc23)[C@H]1C` [Compound 45, 4-(4-(((2R,3R)-1-acryloyl-2-methylpyrrolidin-3-yl)(ethyl)amino)-8-fluoro-2-(((2S,4R)-4-methoxy-1-methylpyrrolidin-2-yl)methoxy)-6-(trifluoromethyl)quinazolin-7-yl)-2-amino-7-fluorobenzo[b]thiophene-3-carbonitrile]: the negative-log IC50 (pIC50) in experiment [1] was greater than 6.30; in the experiment on pERK in NCI-H358 cells (Homo sapiens, NCI-H358, 0.5 h), greater than 7.00.

Regarding `C=CC(=O)N1CC2CC(C1)N2c1nc(OC[C@@]23CCCN2C[C@H](F)C3)nc2c(F)c(-c3ccc(F)c4sc(N)c(C#N)c34)c(C(F)(F)F)cc12` [Compound 46], the negative-log IC50 (pIC50) in experiment [1] was 5.30 to 6.30; in the experiment on pERK in NCI-H358 cells (Homo sapiens, NCI-H358, 0.5 h) it was 6.00 to 7.00.

For the compound `C=CC(=O)N1CC2CCC(C1)N2c1nc(OC[C@@]23CCCN2C[C@H](F)C3)nc2c(F)c(-c3ccc(F)c4sc(N)c(C#N)c34)c(C(F)(F)F)cc12` [Compound 49], the pIC50 was greater than 6.30 in experiment [1] and greater than 7.00 in the experiment on pERK in NCI-H358 cells (Homo sapiens, NCI-H358, 0.5 h).

Take `C=CC(=O)N1CC[C@@H](N(CC)c2nc(OC[C@@]34CCCN3C[C@H](F)C4)nc3c(F)c(-c4ccc(F)c5sc(N)c(C#N)c45)ccc23)[C@@H]1CC` [Compound 50]: the pIC50 in experiment [1] was 5.30 to 6.30; with pERK in NCI-H358 cells (Homo sapiens, NCI-H358, 0.5 h) it was 6.00 to 7.00.

On to `C=CC(=O)N1CC[C@@H](N(CC)c2nc(OC[C@@H]3C[C@@H](F)CN3C)nc3c(F)c(-c4ccc(F)c5sc(N)c(C#N)c45)c(C(F)(F)F)cc23)[C@H]1C` [Compound 52], for which the pIC50 in experiment [1] was greater than 6.30; in the experiment with pERK in NCI-H358 cells it was greater than 7.00.

For the compound `C=CC(=O)N1CC[C@@H](N(C)c2nc(OC[C@@H]3C[C@@H](F)CN3C)nc3c(F)c(-c4ccc(F)c5sc(N)c(C#N)c45)c(C(F)(F)F)cc23)[C@H]1C` [Compound 55], the negative logarithm of the IC50 (pIC50) in experiment [1] is greater than 6.30; with pERK in NCI-H358 cells (Homo sapiens, NCI-H358, 0.5 h), greater than 7.00.

As to `C=CC(=O)N1CC[C@@H](N(CC)c2nc(OC[C@@]34CCCN3C[C@H](F)C4)nc3cc(-c4ccc(F)c5sc(N)c(C#N)c45)c(C#N)cc23)[C@@H]1C` [Compound 56], the pIC50 in experiment [1] was greater than 6.30; in the experiment on pERK in NCI-H358 cells (Homo sapiens, NCI-H358, 0.5 h), greater than 7.00.

With `C=CC(=O)N1CC[C@@H](N(CC)c2nc(OC[C@@]34CCCN3C[C@H](F)C4)nc3c(F)c(-c4ccc(F)c5sc(N)c(C#N)c45)ccc23)[C@@H]1C` [Compound 57], the pIC50 in experiment [1] is greater than 6.30; in the experiment with pERK in NCI-H358 cells (Homo sapiens, NCI-H358, 0.5 h), greater than 7.00.

As for `C=CC(=O)N1CC[C@@H](N(CC)c2nc(OC[C@@H]3CCCN3C)nc3c(F)c(-c4ccc(F)c5sc(N)c(C#N)c45)c(Cl)cc23)[C@H]1C` [Compound 58], the negative-log IC50 (pIC50) in experiment [1] is greater than 6.30; in the experiment on pERK in NCI-H358 cells (Homo sapiens, NCI-H358, 0.5 h), greater than 7.00.

As to `C=CC(=O)N1CC[C@@H](N(C)c2nc(OC[C@@H]3CCCN3C)nc3c(F)c(-c4ccc(F)c5sc(N)c(C#N)c45)c(Cl)cc23)[C@H]1C` [Compound 59], the pIC50 in experiment [1] is greater than 6.30; in the experiment with pERK in NCI-H358 cells, greater than 7.00.

Take `C=CC(=O)N1CC[C@@H](N(CC)c2nc(OC[C@@H]3C[C@@H](F)CN3C)nc3c(F)c(-c4ccc(F)c5sc(N)c(C#N)c45)c(Cl)cc23)[C@H]1C` [Compound 60]: the negative logarithm of the IC50 (pIC50) in experiment [1] was greater than 6.30; with pERK in NCI-H358 cells (Homo sapiens, NCI-H358, 0.5 h), greater than 7.00.

For `C=CC(=O)N1CC[C@@H](N(C)c2nc(OC[C@@H]3C[C@@H](F)CN3C)nc3c(F)c(-c4ccc(F)c5sc(N)c(C#N)c45)c(Cl)cc23)[C@H]1C` [Compound 61], the pIC50 in experiment [1] is greater than 6.30; in the experiment on pERK in NCI-H358 cells (Homo sapiens, NCI-H358, 0.5 h), greater than 7.00.

For the compound `C=CC(=O)N1CC[C@@H](N(C)c2nc(OC[C@@H]3C[C@@H](OC)CN3C)nc3c(F)c(-c4ccc(F)c5sc(N)c(C#N)c45)c(Cl)cc23)[C@H]1C` [Compound 63, 4-(4-(((2R,3R)-1-acryloyl-2-methylpyrrolidin-3-yl)(methyl)amino)-6-chloro-8-fluoro-2-(((2S,4R)-4-methoxy-1-methylpyrrolidin-2-yl)methoxy)quinazolin-7-yl)-2-amino-7-fluorobenzo[b]thiophene-3-carbonitrile], the negative logarithm of the IC50 (pIC50) in experiment [1] is greater than 6.30; with pERK in NCI-H358 cells (Homo sapiens, NCI-H358, 0.5 h), greater than 7.00.

With `C=CC(=O)N1CC[C@@H](N(C)c2nc(OC[C@@H]3CC4(CC4)CN3C)nc3c(F)c(-c4ccc(F)c5sc(N)c(C#N)c45)c(Cl)cc23)[C@H]1C` [Compound 64], the negative logarithm of the IC50 (pIC50) is greater than 6.30 in experiment [1] and greater than 7.00 in the experiment with pERK in NCI-H358 cells (Homo sapiens, NCI-H358, 0.5 h).

On to `C=CC(=O)N1CC[C@@H](N(CC)c2nc(OC[C@@H]3CC4(CC4)CN3C)nc3c(F)c(-c4ccc(F)c5sc(N)c(C#N)c45)c(C(F)(F)F)cc23)[C@H]1C` [Compound 65], for which the negative logarithm of the IC50 (pIC50) in experiment [1] was greater than 6.30; with pERK in NCI-H358 cells (Homo sapiens, NCI-H358, 0.5 h), greater than 7.00.

For the compound `C=CC(=O)N1CC[C@@H](N(CC)c2nc(OC[C@@H]3CCCN3C)nc3c(F)c(-c4ccc(F)c5sc(N)c(C#N)c45)c(C(F)(F)F)cc23)[C@H]1C` [Compound 66], the pIC50 in experiment [1] is greater than 6.30; with pERK in NCI-H358 cells (Homo sapiens, NCI-H358, 0.5 h) it was greater than 7.00.

Usually pIC50 stands for −log10 of the IC50, conventionally taken in molar units.

Values taken from patent publication US20260232666A1, “COMPOSITIONS AND METHODS FOR INHIBITION OF RAS” (TheRas, Inc., priority 2023, published 2026).
